Laboratory results reported in patent US20070140897A1, “PH STABLE BIGUANIDE COMPOSITION AND METHOD OF TREATMENT AND PREVENTION OF INFECTIONS” (priority 2005, published 2007).
≈ marks a conversion by molar mass, not a printed value.

Columns and labels:
[1] = Loss of Alexidine due to non-specific binding to glass vial at different pH; assay type: physicochemical; conditions: 20 ppm, two weeks
Experimental: Alexidine sample solutions (20 ppm) were prepared at different pHs and quantitative amount were stored in glass vial for two weeks. At the end of storage, the sample solution was removed and thoroughly rinsed with distilled water. The empty sample vials were then rinsed with 0.1 N HCl solution. The concentration of Alexidine in the acid solution was determined by HPLC assay and the amount recovered from glass wall was calculated in Table 1.

[2] = Anterior ocular and systemic pharmacokinetics after repeated topical ocular administration (TID, 10 doses); assay type: in vivo, male New Zealand Composite rabbits; conditions: for AUC(0-24) / DNAUC(0-24) / Cmax / Tmax: TID dosing (dose 10), 10 μg/eye; for Cmax / Tmax: topical or ocular, 10 ug
Experimental: This study was to investigate anterior ocular and systemic pharmacokinetics of alexidine following repeated topical ocular administration (3 doses/day; 10 doses total) of a 100 ppm solution to male New Zealand Composite rabbits.
This study was carried out using a non-crossover design and a total of 52 naïve male New Zealand Composite rabbits. Each animal (fed) received a topical ocular dose of alexidine at approximately 7 am, 12 noon and 5 pm on Day 1, Day 2 and Day 3. On the morning of Day 4, each animal received the final (10th) topical ocular dose. For each dose administration, animals received approximately 100 μL of a 100 ppm solution (10 μg dose) as a topical instillation into the conjunctival sac of each eye using a positive-displacement pipette.
On Day 4, rabbits (n=4 per collection time) were euthanized and the eyes enucleated and dissected. Samples of blood (centrifuged to obtain plasma), tear, conjunctiva, cornea, and aqueous humor were obtained from both eyes of each animal. Samples were collected prior to administration of the final dose, and 5, 15, and 30 min and 1, 2, 4, 8, 24, 32, 48, 56, and 72 hr after dosing. Non-compartmental methods were used for pharmacokinetic analysis of concentration versus time data. Due to the destructive sampling regimen employed in this study average composite data were used in the pharmacokinetic analysis.
Abbreviations used in this diagram are as follows. Cmax is defined as the maximum mean concentration attained after topical instillation (±SD). Tmax is the time that Cmax was observed.

[3] = Pharmacokinetics after single topical ocular dose 10 μg/eye (BL06029); assay type: in vivo, rabbit; conditions: single dose 10 μg/eye (BL06029); for Cmax / Tmax: rabbit, topical or ocular, 10 ug
[4] = system: acantamoeba cysts and trophazoites; conditions: cited from earlier work
Aspergillus keratitis = conditions: 0.02%; cited from earlier work
Fusarium Keratomycosis = conditions: 0.02% solution, rabbit model; cited from earlier work
Acanthamoeba keratitis = conditions: case report, recurrence in corneal graft; cited from earlier work
[5] = male, New Zealand Composite, rabbit, Conjunctiva
[6] = male, New Zealand Composite, rabbit, Cornea

CCCCC(CC)CNC(=N)NC(=N)NCCCCCCNC(=N)NC(=N)NCC(CC)CCCC (stereo not drawn) [Alexidine, 1,1′-hexamethylene-bis[5-(2-ethylhexyl)biguanide]]
% Adsorbed on Glass Vial ([1]; pH 3): 1.0%
% Adsorbed on Glass Vial ([1]; pH 5): 4.0%
% Adsorbed on Glass Vial ([1]; pH 7): 7.5%
% Adsorbed on Glass Vial ([1]; pH 9): 12.5%
% Adsorbed on Glass Vial ([1]; pH 11): 23.5%
AUC(0-24) ([2]; Conjunctiva): 11461 µg·min/g
DNAUC(0-24) ([2]; Conjunctiva): 1146 (min · ug/g) ÷ ug
AUC(0-24) ([2]; Cornea): 2727 µg·min/g
DNAUC(0-24) ([2]; Cornea): 273 (min · ug/g) ÷ ug
mean concentrations in conjunctiva ([2]; at all times through the 72 hr after the final 10-μg dose): ≥ 5100 ng/g
AUC(0-t) ([2]; male, New Zealand Composite, rabbit, conjunctiva, topical, repeated administration of a 10-μg dose, value used for AUC:MIC90 ratio, read-out: AUC(0-24)): 191 µg·h/mL
Cmax [2, 5]: 15100 ± 4120 ng/g
Tmax [2, 5]: 5 min
Cmax [2, 6]: 3740 ± 1790 ng/g
Tmax [2, 6]: 30 min
tolerability ([2]; repeated administration of a 100 ppm solution, topical ocular): well tolerated in all animals
levels in aqueous humor ([3]; Aq. Humor): No Quantifiable levels (<0.5 ng/mL)
AUC(0-24) ([3]; Conjunctiva): 5697 µg·min/g
DNAUC(0-24) ([3]; Conjunctiva): 570 (min · ug/g) ÷ ug
AUC(0-24) ([3]; Cornea): 557 µg·min/g
DNAUC(0-24) ([3]; Cornea): 55.7 (min · ug/g) ÷ ug
levels in plasma ([3]; Plasma): No Quantifiable levels (<0.5 ng/mL)
Cmax ([3]; Conjunctiva): 6440 ng/g
Tmax ([3]; Conjunctiva): 480 min
Cmax ([3]; Cornea): 997 ng/g
Tmax ([3]; Cornea): 15 min
minimum inhibitory concentration [4]: 6.3 µg/mL (≈ 12.4 µM)

poly(hexamethylene biguanide) [PHMB]
effectiveness in experimental Aspergillus keratitis (Aspergillus keratitis): moderately effective
reducing fungal growth (Fusarium Keratomycosis): effective at reducing fungal growth
treatment of recurrences of Acanthamoeba keratitis (Acanthamoeba keratitis): successfully treated
